Test results reported in ChEMBL document CHEMBL4765403, “Augmentation of the antitumor effects of PARP inhibitors in triple-negative breast cancer via degradation by hydrophobic tagging modulation” (Eur J Med Chem, 2020).
Activity calls are given as the source filed them. The rule behind the calls is not given here.

What was measured:
[1] = test system: MDA-MB-231; experiment: Induction of apoptosis in human MDA-MB-231 cells assessed as upregulation in p21 gene expression at 5 to 10 uM incubated for 24 to 48 hrs by RT-PCR analysis; assay type: functional, cell-based; settings: dose 5-10 µM, time 24-48 hrs
[2] = test system: MDA-MB-231; experiment: Induction of autophagy in human MDA-MB-231 cells assessed as upregulation in LC3B protein expression at 5 uM measured after 48 to 72 hrs by Western blot analysis; assay type: functional, cell-based; settings: time 48-72 hrs
[3] = test system: MDA-MB-468; experiment: Induction of endoplasmic reticulum stress in human MDA-MB-468 cells assessed as increase in XBP-1s protein expression at 5 uM incubated for 48 hrs by Western blot analysis; assay type: functional, cell-based
[4] = target: Poly [ADP-ribose] polymerase 1 (Homo sapiens) (UniProt P09874); experiment: Induction of PARP1 degradation in triple-negative human MDA-MB-231 cells assessed as fold change in PARP1 protein expression at 5 uM incubated for 24 hrs by Western blot analysis relative to control; assay type: cell-based
[5] = test system: MDA-MB-468; experiment: Cytotoxicity against human MDA-MB-468 cells assessed as reduction in cell viability measured after 96 hrs by CCK8 assay; assay type: functional, cell-based; settings: MDA-MB-468, 96 h
[6] = target: Poly [ADP-ribose] polymerase 1 (Homo sapiens) (UniProt P09874); experiment: Induction of PARP1 degradation in triple-negative human MDA-MB-231 cells assessed as fold change in PARP1 protein expression at 1 uM incubated for 48 hrs by Western blot analysis relative to control; assay type: cell-based
[7] = test system: MDA-MB-468; experiment: Induction of apoptosis in human MDA-MB-468 cells assessed as increase in p21 protein expression at 5 uM incubated for 48 hrs by Western blot analysis; assay type: functional, cell-based
[8] = test system: MDA-MB-231; experiment: Induction of endoplasmic reticulum stress in human MDA-MB-231 cells assessed as increase in CHOP protein expression at 5 uM measured after 24 to 72 hrs by Western blot analysis; assay type: functional, cell-based; settings: time 24-72 hrs
[9] = test system: MDA-MB-231; experiment: Induction of endoplasmic reticulum stress in human MDA-MB-231 cells assessed as upregulation in XBP-1s gene expression at 5 to 10 uM incubated for 24 to 48 hrs by RT-PCR analysis; assay type: functional, cell-based; settings: dose 5-10 µM, time 24-48 hrs
[10] = target: Poly [ADP-ribose] polymerase 1 (Homo sapiens) (UniProt P09874); experiment: Induction of PARP1 degradation in human MDA-MB-468 cells assessed as fold change in PARP1 protein expression at 5 uM incubated for 48 hrs in presence of pan-caspase inhibitor, Z-VAD-FMK by Western blot analysis; assay type: cell-based
[11] = target: Poly [ADP-ribose] polymerase 1 (Homo sapiens) (UniProt P09874); experiment: Induction of PARP1 degradation in triple-negative human MDA-MB-231 cells assessed as fold change in PARP1 protein expression at 2.5 uM incubated for 48 hrs by Western blot analysis relative to control; assay type: cell-based
[12] = test system: MDA-MB-231; experiment: Induction of apoptosis in human MDA-MB-231 cells assessed as downregulation in Bcl2 gene expression at 5 to 10 uM incubated for 24 to 48 hrs by RT-PCR analysis; assay type: functional, cell-based; settings: dose 5-10 µM, time 24-48 hrs
[13] = target: Poly [ADP-ribose] polymerase 1 (Homo sapiens) (UniProt P09874); experiment: Induction of PARP1 degradation in human MDA-MB-231 cells at 2.5 uM incubated for 48 hrs by Western blot analysis relative to control; assay type: cell-based
[14] = target: Poly [ADP-ribose] polymerase 1 (Homo sapiens) (UniProt P09874); experiment: Induction of PARP1 degradation in triple-negative human MDA-MB-231 cells assessed as fold change in PARP1 protein expression at 0.1 uM incubated for 48 hrs by Western blot analysis relative to control; assay type: cell-based
[15] = target: Poly [ADP-ribose] polymerase 1 (Homo sapiens) (UniProt P09874); experiment: Induction of PARP1 degradation in triple-negative human MDA-MB-468 cells assessed as fold change in PARP1 protein expression at 5 uM incubated for 24 hrs by Western blot analysis relative to control; assay type: cell-based
[16] = target: Poly [ADP-ribose] polymerase 1 (Homo sapiens) (UniProt P09874); experiment: Induction of PARP1 degradation in human MDA-MB-231 cells assessed as fold change in PARP1 protein expression at 5 uM pretreated for 2 hrs with pan-caspase inhibitor, Z-VAD-FMK followed by incubation with compound for 48 hrs by Western blot analysis relative to control; assay type: cell-based
[17] = target: Poly [ADP-ribose] polymerase 1 (Homo sapiens) (UniProt P09874); experiment: Induction of PARP1 degradation in triple-negative human MDA-MB-231 cells assessed as fold change in PARP1 protein expression at 1 uM incubated for 24 hrs by Western blot analysis relative to control; assay type: cell-based
[18] = test system: MDA-MB-231; experiment: Induction of apoptosis in human MDA-MB-231 cells assessed as upregulation in Bax gene expression at 5 to 10 uM incubated for 24 to 48 hrs by RT-PCR analysis; assay type: functional, cell-based; settings: dose 5-10 µM, time 24-48 hrs
[19] = test system: MDA-MB-231; experiment: Induction of apoptosis in human MDA-MB-231 cells assessed as upregulation in PUMA gene expression at 5 to 10 uM incubated for 24 to 48 hrs by RT-PCR analysis; assay type: functional, cell-based; settings: dose 5-10 µM, time 24-48 hrs
[20] = test system: MDA-MB-231; experiment: Cytotoxicity against human MDA-MB-231 cells assessed as reduction in cell growth at 5 uM measured after 96 hrs by CCK8 assay relative to control; assay type: functional
[21] = target: Poly [ADP-ribose] polymerase 1 (Homo sapiens) (UniProt P09874); experiment: Induction of PARP1 degradation in human MDA-MB-231 cells assessed as fold change in PARP1 protein expression at 5 uM incubated for 48 hrs in presence of pan-caspase inhibitor, Z-VAD-FMK by Western blot analysis; assay type: cell-based
[22] = target: Poly [ADP-ribose] polymerase 1 (Homo sapiens) (UniProt P09874); experiment: Induction of PARP1 degradation in triple-negative human MDA-MB-231 cells assessed as fold change in PARP1 protein expression at 0.01 uM incubated for 24 hrs by Western blot analysis relative to control; assay type: cell-based
[23] = target: Poly [ADP-ribose] polymerase 1 (Homo sapiens) (UniProt P09874); experiment: Induction of PARP1 degradation in human MDA-MB-231 cells at 5 uM pretreated for 2 hrs with proteasome inhibitor, bortezomib for 2 hrs followed by incubation with compound for 48 hrs by immunoblotting analysis; assay type: cell-based
[24] = test system: MDA-MB-231; experiment: Induction of apoptosis in human MDA-MB-231 cells assessed as increase in Bax protein expression at 5 uM incubated for 24 to 48 hrs by Western blot analysis; assay type: functional, cell-based; settings: time 24-48 hrs
[25] = target: Poly [ADP-ribose] polymerase 1 (Homo sapiens) (UniProt P09874); experiment: Induction of PARP1 degradation in triple negative human MDA-MB-231 cells assessed as fold change in PARP1 protein expression at 5 uM incubated for 48 hrs by Western blot analysis relative to control; assay type: cell-based
[26] = target: Poly [ADP-ribose] polymerase 1 (Homo sapiens) (UniProt P09874); experiment: Induction of PARP1 degradation in human MDA-MB-231 cells at 5 uM pretreated for 2 hrs with proteasome inhibitor, carfilzomib for 2 hrs followed by incubation with compound for 48 hrs by immunoblotting analysis; assay type: cell-based
[27] = target: Poly [ADP-ribose] polymerase 1 (Homo sapiens) (UniProt P09874); experiment: Induction of PARP1 degradation in triple-negative human MDA-MB-231 cells assessed as fold change in PARP1 protein expression at 2.5 uM incubated for 24 hrs by Western blot analysis relative to control; assay type: cell-based
[28] = test system: MDA-MB-231; experiment: Induction of autophagy in human MDA-MB-231 cells assessed as upregulation in LC3A gene expression at 5 to 10 uM measured after 24 to 48 hrs by RT-PCR analysis; assay type: functional, cell-based; settings: dose 5-10 µM, time 24-48 hrs
[29] = target: Poly [ADP-ribose] polymerase 1 (Homo sapiens) (UniProt P09874); experiment: Induction of PARP1 degradation in triple-negative human MDA-MB-231 cells assessed as fold change in PARP1 protein expression at 0.5 uM incubated for 48 hrs by Western blot analysis relative to control; assay type: cell-based
[30] = test system: MDA-MB-231; experiment: Induction of autophagy in human MDA-MB-231 cells assessed as autophagosome, large double membrane-bound vesicles enclosing cytoplasmic components formation at 5 uM incubated for 24 to 48 hrs by transmission electron microscopy; assay type: functional, cell-based; settings: time 24-48 hrs
[31] = test system: MDA-MB-231; experiment: Induction of apoptosis in human MDA-MB-231 cells assessed as increase in p21 protein expression at 5 uM incubated for 24 to 48 hrs by Western blot analysis; assay type: functional, cell-based; settings: time 24-48 hrs

Poly [ADP-ribose] polymerase 1 (Homo sapiens), sequence (P09874 whole entry): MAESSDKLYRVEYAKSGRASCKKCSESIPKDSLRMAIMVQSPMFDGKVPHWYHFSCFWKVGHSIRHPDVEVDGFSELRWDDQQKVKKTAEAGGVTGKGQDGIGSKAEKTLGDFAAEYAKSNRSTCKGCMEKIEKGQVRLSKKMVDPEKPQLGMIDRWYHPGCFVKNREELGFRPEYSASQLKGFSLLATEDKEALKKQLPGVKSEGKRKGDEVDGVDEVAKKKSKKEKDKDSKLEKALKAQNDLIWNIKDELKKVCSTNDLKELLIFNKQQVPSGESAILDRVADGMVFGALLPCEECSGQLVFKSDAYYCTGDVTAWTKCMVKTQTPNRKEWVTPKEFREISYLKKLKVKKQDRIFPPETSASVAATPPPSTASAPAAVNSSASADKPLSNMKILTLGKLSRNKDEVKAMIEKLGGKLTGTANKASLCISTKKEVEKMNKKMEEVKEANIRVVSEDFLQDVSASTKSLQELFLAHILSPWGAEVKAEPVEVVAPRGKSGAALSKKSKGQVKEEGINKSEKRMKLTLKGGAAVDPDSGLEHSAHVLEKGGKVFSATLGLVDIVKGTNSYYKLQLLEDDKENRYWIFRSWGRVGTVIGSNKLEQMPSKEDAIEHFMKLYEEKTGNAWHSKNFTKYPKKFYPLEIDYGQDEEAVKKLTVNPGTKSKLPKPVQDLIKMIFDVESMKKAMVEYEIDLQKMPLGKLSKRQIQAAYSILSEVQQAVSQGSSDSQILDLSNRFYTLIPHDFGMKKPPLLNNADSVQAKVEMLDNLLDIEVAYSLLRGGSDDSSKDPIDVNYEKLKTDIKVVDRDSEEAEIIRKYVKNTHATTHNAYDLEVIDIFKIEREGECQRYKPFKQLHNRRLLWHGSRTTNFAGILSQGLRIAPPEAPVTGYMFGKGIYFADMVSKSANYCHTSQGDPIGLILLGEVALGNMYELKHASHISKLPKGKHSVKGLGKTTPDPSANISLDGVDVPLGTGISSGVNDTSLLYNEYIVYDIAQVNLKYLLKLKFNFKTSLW

O=C(CC1c2ccccc2-c2ccccc21)N1CCN(C(=O)c2cc(Cc3n[nH]c(=O)c4ccccc34)ccc2F)CC1
Activity [1]: Active | Activity [2]: Active | Activity [3]: Active | fold change (FC) [4]: 0.8 | IC50 [5]: 5.72 µM | fold change (FC) [6]: 0.7 | Activity [7]: Active | Activity [8]: Active | Activity [9]: Active | fold change (FC) [10]: 0.4 | fold change (FC) [11]: 0.1 | Activity [12]: Active | Activity [13]: 60% | fold change (FC) [14]: 0.6 | fold change (FC) [15]: 0.8 | fold change (FC) [16]: 0.3 | fold change (FC) [17]: 0.8 | Activity [18]: Active | Activity [19]: Active | inhibition at 5 µM [20]: 80% | fold change (FC) [21]: 0.3 | fold change (FC) [22]: 0.9 | Activity [23]: inactive | Activity [24]: Active | fold change (FC) [25]: 0.1 | Activity [26]: inactive | fold change (FC) [27]: 0.8 | Activity [28]: Active | fold change (FC) [29]: 0.6 | Activity [30]: Active | Activity [31]: Active
